Experimental data from patent publication US8012959B2, “Diaminopyrimidinecarboxamide derivative” (Astellas Pharma Inc., priority 2002, dated 2011).

Key:
T cells = assay: Th2 differentiation (IL-4 production by differentiated mouse spleen T cells, ELISA); format: cell-based; conditions: inhibition of Th2 differentiation (IL-4 production, ELISA), C57BL/6 mouse spleen T cells
Description: Measurement of Th2 Differentiation
T cells were prepared by removing nylon wool (Wako Pure Chemical Industries)-adhering cells from C57BL/6 mouse (Charles River Japan) spleen cells. Using a 96 well plate to which an anti-CD3ε antibody (10 μg/ml) (Sederlane) had been immobilized in advance, T cells (2×10^5 cells/0.2 ml) were inoculated under stimulation with anti-CD28 antibody (1 μg/ml) (Pharmingen), IL-2 (10 ng/ml) (Peprotech) and IL-4 (10 ng/ml) (Peprotech). After 2 days of the culturing, total volume of the cell suspension was diluted to 2 ml with a medium containing IL-2 (10 ng/ml) and IL-4 (10 ng/ml). The differentiation was induced by further carrying out the culturing for 3 days. By counting the cell density, the cells after differentiation were adjusted to 1×10^6 cells/ml and inoculated into a 96 well plate immobilized with the anti-CD3 ε antibody, in order to induce IL-4 production. The supernatant after 24 hours of the stimulation was recovered, and the IL-4 production was determined by an ELISA method. The antibody used in the ELISA was purchased from Pharmingen. Also, an HRPO-labeled streptoavidin (Amersham Pharmacia) was used in the detection of biotinylated antibody, and a peroxidase color developing reagent (Sumitomo Bakelite) was used in the HRPO color development. In the case of the evaluation of compounds, compound dilutions were added to the wells before the addition of T cells, at the time of the dilution 2 days later, compounds equivalent to the initial concentration were added. Also, regarding the dilution of compounds, dilution was carried out using 10% FBS-containing RPMI 1640 such that the final concentration of DMSO in which each compound was dissolved became 0.1% or less. Inhibitory activity of each tested compound was evaluated in which the IL-4 production when DMSO was added instead of the compound was regarded as 100%, and the IL-4 production when anti-CD28 antibody and IL-4 were not added as 0%.

STAT 6 = biological target: T1, STAT 6 (Mus musculus, UniProt P52633); assay: STAT 6-dependent reporter activity (IL-4-stimulated CI/FW4 luciferase reporter cell); format: cell-based, human
T1 construct: An STAT 6 reporter cell CI/FW4 was constructed by the above operation; endogenous in cells; host or cells: CI/FW4 (FW4 cell stably carrying the pGL2-CI/bs luciferase reporter)
T1 sequence (P52633 1-837): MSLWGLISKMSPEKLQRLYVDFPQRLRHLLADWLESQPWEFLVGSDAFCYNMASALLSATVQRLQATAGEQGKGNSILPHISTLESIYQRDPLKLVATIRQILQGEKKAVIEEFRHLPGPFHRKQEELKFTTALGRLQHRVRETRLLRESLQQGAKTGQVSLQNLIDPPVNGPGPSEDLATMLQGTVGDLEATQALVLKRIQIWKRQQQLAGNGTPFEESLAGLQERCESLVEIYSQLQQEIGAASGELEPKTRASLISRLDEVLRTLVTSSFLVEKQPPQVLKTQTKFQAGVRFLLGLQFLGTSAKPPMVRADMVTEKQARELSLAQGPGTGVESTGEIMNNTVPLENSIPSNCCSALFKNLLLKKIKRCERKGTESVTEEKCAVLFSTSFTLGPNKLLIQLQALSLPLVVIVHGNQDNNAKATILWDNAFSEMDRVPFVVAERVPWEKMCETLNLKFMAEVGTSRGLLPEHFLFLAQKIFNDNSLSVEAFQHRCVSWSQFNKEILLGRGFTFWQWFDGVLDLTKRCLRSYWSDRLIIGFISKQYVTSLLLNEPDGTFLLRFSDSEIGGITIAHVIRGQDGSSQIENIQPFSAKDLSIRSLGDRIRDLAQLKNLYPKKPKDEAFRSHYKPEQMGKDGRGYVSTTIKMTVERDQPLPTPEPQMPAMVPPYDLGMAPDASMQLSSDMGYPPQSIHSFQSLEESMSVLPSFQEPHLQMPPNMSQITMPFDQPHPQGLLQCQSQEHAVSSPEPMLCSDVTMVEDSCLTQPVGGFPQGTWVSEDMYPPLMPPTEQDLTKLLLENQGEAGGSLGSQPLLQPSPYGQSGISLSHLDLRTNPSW
Description: Measurement of STAT 6-Dependent Reporter Activity 1) Construction of STAT 6 Reactive Reporter Plasmid A STAT 6 reporter plasmid pGL2-CI was prepared by the following method. […] Also, […] sequence DNA molecules (SEQ ID NOs:3 and 4) contained in the adenovirus major late promoter were annealed and inserted into BglII and HindIII sites of the same vector. Thereafter, pGL2-CI/bs was constructed by inserting the blasticidin resistance gene of pUCSV-BD (Funakoshi) into BamHI site of the constructed pGL2-CI. 2) Construction of STAT 6 Reporter Cell Gene transfer of […] into a human IL-4 reactive cell FW4 cell (Mol. Cell. Biol., 14: 5433-5440) was carried out by the electroporation method (320 V, 960 μF/0.4 cm cuvette (Nippon Bio-Rad Laboratories)), and 6 μg/ml of blasticidin (Funakoshi) was added 40 hours thereafter to select a resistant cell. Confirmation of constant transfer of the reporter plasmid was carried out by detecting luciferase induce by IL-4 stimulation. An STAT 6 reporter cell CI/FW4 was constructed by the above operation. 3) STAT Reporter Assay Using CI/FW4 Cell Stimulation of the CI/FW4 cell (1×10^4 cells/0.1 ml) with 10 ng/ml of human IL-4 (Genzyme Techne) was carried out using a white 96 well plate (Nunc). In the case of the evaluation of compounds, compound dilutions were added to the wells before inoculating the cells into the 96 well plate. […] Thereafter, 50 μl of a luciferase substrate solution (10 mM Tris-HCl pH 7.8, 5 mM luciferin, 2 mM coenzyme A, 2 mM ATP, 0.5 mM MgCl2 and 2 mM Mg(OH)2) was added, followed by stirring for 1 minute. Then, the luciferase activity was measured using ML3000 luminometer (Dynatech Laboratories, Inc). Inhibitory activities of tested compounds were evaluated in which the luminescence intensity (relative light unit: […] The results are shown in the following Table 26.

[1] = inhibition ratio at 0.1 μM compound, IL-4-stimulated CI/FW4 cell, luciferase
[2] = inhibition ratio at 1 μM compound, IL-4-stimulated CI/FW4 cell, luciferase

| inhibition of STAT 6-dependent reporter activity (activity similar to the compounds of Table 26) (STAT 6; CI/FW4 cell, 10 ng/ml human IL-4, luciferase) | inhibition at 0.1 µM (STAT 6; [1]) [%] | inhibition at 1 µM (STAT 6; [2]) [%] | Compound | Inh (%) (T cells) | Inh (%) 0.1 μM (STAT 6; [1]) [%] | Inh (%) 1 μM (STAT 6; [2]) [%] |
| --- | --- | --- | --- | --- | --- | --- |
| good activity |  |  | Cc1cccc(Nc2nc(NCCc3ccc(O)c(Cl)c3)ncc2C(N)=O)c1 [Production Example 99] | 85 |  |  |
|  | 100 | 100 | NC(=O)c1cnc(Nc2ccc(N3CCOCC3)cc2)nc1NCc1ccccc1 [Example 3, 4-benzylamino-2-{[4-(morpholin-4-yl)phenyl]amino}pyrimidine-5-carboxamide] | 98 |  |  |
|  |  |  | COc1ccccc1CNc1nc(Nc2ccc(N3CCOCC3)cc2)ncc1C(N)=O [Example 35] | 94 | 95 | 100 |
